Results taken from paper PMC5578373, “Inhibitory Kappa B Kinase α (IKKα) Inhibitors That Recapitulate Their Selectivity in Cells against Isoform-Related Biomarkers” (Journal of Medicinal Chemistry, 2017).

Assays:
[1] = system: IKKα-regulated NF-κB transcriptional activation in IKKβ−/− MEFs; test: IL-1β-stimulated NF-κB-luciferase transcriptional activity in IKKβ knockout MEFs; format: cell-based, mouse; conditions: maximal concentrations of 50–100 μM
Description: To provide further evidence for cellular activity, mouse embryonic fibroblasts lacking the IKKβ kinase subunit were utilized to investigate the potency of both compounds against agonist-stimulated IKKα-regulated NF-κB transcriptional activation. Cells were infected with an adenovirus encoding an NF-κB-luciferase promoter gene. NF-κB transcriptional activity driven by IKKα was stimulated specifically using IL-1β,[41] and the ability of the compounds to inhibit this response was assessed. […] As IKKα plays a lesser role in the canonical NF-κB cascade,[42] particularly the rapid and transient stimulated degradation of IκBα, selective IKKα inhibitors should not affect TNF-α induced IκBα degradation and p65 phosphorylation.
U2OS cells were cultured with McCoy’s 5A modified medium and MEF were cultured with DEME medium containing 10% (v/v) FCS and medium was changed every 2 d thereafter until cells became confluent. Cells were incubated at 37 °C in humidified air with 5% CO2 and rendered quiescent by serum deprivation for 24 h prior to stimulation in serum-free medium.
An adenoviral vector encoding NFκB-luciferase (Adv.NFκB-Luc) was purchased from Vector Biolabs (University of Pennsylvania, Philadelphia, US). Large-scale production of high titer recombinant adenovirus was performed by routine methods.[47] IKKβ knockout mouse embryonic fibroblasts (MEFs; kindly provided by Prof. I. Verma, UCSD, USA) were counted when approximately 60–70% confluent in T75 cm^2 flasks and infected with adenovirus up to 300 pfu/cell^–1 for 24 h in 10% DMEM. Cells were then lifted from the flasks and plated into 96-well clear bottom, black luciferase plates and allowed to settle for 24 h before serum starved overnight. Cells were then stimulated with the appropriate agonists for the indicated times and reactions terminated by addition of lysis buffer containing 0.2 mM luciferin substrate. Relative light units (RLU) were measured using a Trilux microbeta counter (luminometer).

ALK(h) = molecular target: T1, ALK(h) (Homo sapiens, UniProt Q9UM73); test: Millipore Kinase Profiler, single concentration; format: biochemical; conditions: duplicate assay points, read-out: % residual activity
T1 construct: purchased Millipore KinaseProfiler
Text: (§1) Kinase profiling of compound 48 was outsourced to Millipore, specifically the Kinase Profiler Customer Service for single concentration studies using duplicate assay points.

AMPKα1(h) = molecular target: T2, AMPKα1(h) (Homo sapiens, UniProt Q13131); test: Millipore Kinase Profiler, single concentration; format: biochemical; conditions: duplicate assay points, read-out: % residual activity
T2 construct: purchased Millipore KinaseProfiler
Text: as §1

Abl(h) = molecular target: T3, Abl(h) (Homo sapiens, UniProt P00519); test: Millipore Kinase Profiler, single concentration; format: biochemical; conditions: duplicate assay points, read-out: % residual activity
T3 construct: purchased Millipore KinaseProfiler
Text: as §1

CDK2/cyclinA(h) = molecular target: T4, CDK2/cyclinA(h) (Homo sapiens, UniProt P24941); test: Millipore Kinase Profiler, single concentration; format: biochemical; conditions: duplicate assay points, read-out: % residual activity
T4 construct: purchased Millipore KinaseProfiler
Text: as §1

CHK1(h) = molecular target: T5, CHK1(h) (Homo sapiens, UniProt O14757); test: Millipore Kinase Profiler, single concentration; format: biochemical; conditions: duplicate assay points, read-out: % residual activity
T5 construct: purchased Millipore KinaseProfiler
Text: as §1

CHK2(h) = molecular target: T6, CHK2(h) (Homo sapiens, UniProt O96017); test: Millipore Kinase Profiler, single concentration; format: biochemical; conditions: duplicate assay points, read-out: % residual activity
T6 construct: purchased Millipore KinaseProfiler
Text: as §1

CK2(h) = molecular target: T7, CK2(h) (Homo sapiens, UniProt P68400); test: Millipore Kinase Profiler, single concentration; format: biochemical; conditions: duplicate assay points, read-out: % residual activity
T7 construct: purchased Millipore KinaseProfiler
Text: as §1

CaMKI(h) = molecular target: T8, CaMKI(h) (Homo sapiens, UniProt Q14012); test: Millipore Kinase Profiler, single concentration; format: biochemical; conditions: duplicate assay points, read-out: % residual activity
T8 construct: purchased Millipore KinaseProfiler
Text: as §1

CaMKIV(h) = molecular target: T9, CaMKIV(h) (Homo sapiens, UniProt Q16566); test: Millipore Kinase Profiler, single concentration; format: biochemical; conditions: duplicate assay points, read-out: % residual activity
T9 construct: purchased Millipore KinaseProfiler
Text: as §1

DAPK1(h) = molecular target: T10, DAPK1(h) (Homo sapiens, UniProt P53355); test: Millipore Kinase Profiler, single concentration; format: biochemical; conditions: duplicate assay points, read-out: % residual activity
T10 construct: purchased Millipore KinaseProfiler
Text: as §1

EGFR(h) = molecular target: T11, EGFR(h) (Homo sapiens, UniProt P00533); test: Millipore Kinase Profiler, single concentration; format: biochemical; conditions: duplicate assay points, read-out: % residual activity
T11 construct: purchased Millipore KinaseProfiler
Text: as §1

EphB4(h) = molecular target: T12, EphB4(h) (Homo sapiens, UniProt P54760); test: Millipore Kinase Profiler, single concentration; format: biochemical; conditions: duplicate assay points, read-out: % residual activity
T12 construct: purchased Millipore KinaseProfiler
Text: as §1

FGFR3(h) = molecular target: T13, FGFR3(h) (Homo sapiens, UniProt P22607); test: Millipore Kinase Profiler, single concentration; format: biochemical; conditions: duplicate assay points, read-out: % residual activity
T13 construct: purchased Millipore KinaseProfiler
Text: as §1

Fes(h) = molecular target: T14, Fes(h) (Homo sapiens, UniProt P07332); test: Millipore Kinase Profiler, single concentration; format: biochemical; conditions: duplicate assay points, read-out: % residual activity
T14 construct: purchased Millipore KinaseProfiler
Text: as §1

GSK3β(h) = molecular target: T15, GSK3β(h) (Homo sapiens, UniProt P49841); test: Millipore Kinase Profiler, single concentration; format: biochemical; conditions: duplicate assay points, read-out: % residual activity
T15 construct: purchased Millipore KinaseProfiler
Text: as §1

HIPK1(h) = molecular target: T16, HIPK1(h) (Homo sapiens, UniProt Q86Z02); test: Millipore Kinase Profiler, single concentration; format: biochemical; conditions: duplicate assay points, read-out: % residual activity
T16 construct: purchased Millipore KinaseProfiler
Text: as §1

IR(h) = molecular target: T17, IR(h) (Homo sapiens, UniProt P06213); test: Millipore Kinase Profiler, single concentration; format: biochemical; conditions: duplicate assay points, read-out: % residual activity
T17 construct: purchased Millipore KinaseProfiler
Text: as §1

JAK2(h) = molecular target: T18, JAK2(h) (Homo sapiens, UniProt O60674); test: Millipore Kinase Profiler, single concentration; format: biochemical; conditions: duplicate assay points, read-out: % residual activity
T18 construct: purchased Millipore KinaseProfiler
Text: as §1

MAPKAP-K2(h) = molecular target: T19, MAPKAP-K2(h) (Homo sapiens, UniProt P49137); test: Millipore Kinase Profiler, single concentration; format: biochemical; conditions: duplicate assay points, read-out: % residual activity
T19 construct: purchased Millipore KinaseProfiler
Text: as §1

MEK1(h) = molecular target: T20, MEK1(h) (Homo sapiens, UniProt Q02750); test: Millipore Kinase Profiler, single concentration; format: biochemical; conditions: duplicate assay points, read-out: % residual activity
T20 construct: purchased Millipore KinaseProfiler
Text: as §1

NEK2(h) = molecular target: T21, NEK2(h) (Homo sapiens, UniProt P51955); test: Millipore Kinase Profiler, single concentration; format: biochemical; conditions: duplicate assay points, read-out: % residual activity
T21 construct: purchased Millipore KinaseProfiler
Text: as §1

PAK2(h) = molecular target: T22, PAK2(h) (Homo sapiens, UniProt Q13177); test: Millipore Kinase Profiler, single concentration; format: biochemical; conditions: duplicate assay points, read-out: % residual activity
T22 construct: purchased Millipore KinaseProfiler
Text: as §1

PKBα(h) = molecular target: T23, PKBα(h) (Homo sapiens, UniProt P31749); test: Millipore Kinase Profiler, single concentration; format: biochemical; conditions: duplicate assay points, read-out: % residual activity
T23 construct: purchased Millipore KinaseProfiler
Text: as §1

PKCα(h) = molecular target: T24, PKCα(h) (Homo sapiens, UniProt P17252); test: Millipore Kinase Profiler, single concentration; format: biochemical; conditions: duplicate assay points, read-out: % residual activity
T24 construct: purchased Millipore KinaseProfiler
Text: as §1

PKCη(h) = molecular target: T25, PKCη(h) (Homo sapiens, UniProt P24723); test: Millipore Kinase Profiler, single concentration; format: biochemical; conditions: duplicate assay points, read-out: % residual activity
T25 construct: purchased Millipore KinaseProfiler
Text: as §1

PKCμ(h) = molecular target: T26, PKCμ(h) (Homo sapiens, UniProt Q15139); test: Millipore Kinase Profiler, single concentration; format: biochemical; conditions: duplicate assay points, read-out: % residual activity
T26 construct: purchased Millipore KinaseProfiler
Text: as §1

PKD2(h) = molecular target: T27, PKD2(h) (Homo sapiens, UniProt Q9BZL6); test: Millipore Kinase Profiler, single concentration; format: biochemical; conditions: duplicate assay points, read-out: % residual activity
T27 construct: purchased Millipore KinaseProfiler
Text: as §1

PRK2(h) = molecular target: T28, PRK2(h) (Homo sapiens, UniProt Q16513); test: Millipore Kinase Profiler, single concentration; format: biochemical; conditions: duplicate assay points, read-out: % residual activity
T28 construct: purchased Millipore KinaseProfiler
Text: as §1

ROCK-II(h) = molecular target: T29, ROCK-II(h) (Homo sapiens, UniProt O75116); test: Millipore Kinase Profiler, single concentration; format: biochemical; conditions: duplicate assay points, read-out: % residual activity
T29 construct: purchased Millipore KinaseProfiler
Text: as §1

TBK1(h) = molecular target: T30, TBK1(h) (Homo sapiens, UniProt Q9UHD2); test: Millipore Kinase Profiler, single concentration; format: biochemical; conditions: duplicate assay points, read-out: % residual activity
T30 construct: purchased Millipore KinaseProfiler
Text: as §1

cSRC(h) = molecular target: T31, cSRC(h) (Homo sapiens, UniProt P12931); test: Millipore Kinase Profiler, single concentration; format: biochemical; conditions: duplicate assay points, read-out: % residual activity
T31 construct: purchased Millipore KinaseProfiler
Text: as §1

T19 sequence (P49137 whole entry): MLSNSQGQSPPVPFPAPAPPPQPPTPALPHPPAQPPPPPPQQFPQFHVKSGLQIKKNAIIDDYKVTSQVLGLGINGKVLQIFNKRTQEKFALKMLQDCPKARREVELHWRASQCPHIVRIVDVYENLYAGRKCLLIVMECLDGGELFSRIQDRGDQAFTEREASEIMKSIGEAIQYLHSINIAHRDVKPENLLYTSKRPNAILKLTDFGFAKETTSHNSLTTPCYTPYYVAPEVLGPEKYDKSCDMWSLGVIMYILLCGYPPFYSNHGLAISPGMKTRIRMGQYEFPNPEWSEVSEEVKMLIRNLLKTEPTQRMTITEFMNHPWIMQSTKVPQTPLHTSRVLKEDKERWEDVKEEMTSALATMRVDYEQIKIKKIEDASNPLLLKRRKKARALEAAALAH
T20 sequence (Q02750 whole entry): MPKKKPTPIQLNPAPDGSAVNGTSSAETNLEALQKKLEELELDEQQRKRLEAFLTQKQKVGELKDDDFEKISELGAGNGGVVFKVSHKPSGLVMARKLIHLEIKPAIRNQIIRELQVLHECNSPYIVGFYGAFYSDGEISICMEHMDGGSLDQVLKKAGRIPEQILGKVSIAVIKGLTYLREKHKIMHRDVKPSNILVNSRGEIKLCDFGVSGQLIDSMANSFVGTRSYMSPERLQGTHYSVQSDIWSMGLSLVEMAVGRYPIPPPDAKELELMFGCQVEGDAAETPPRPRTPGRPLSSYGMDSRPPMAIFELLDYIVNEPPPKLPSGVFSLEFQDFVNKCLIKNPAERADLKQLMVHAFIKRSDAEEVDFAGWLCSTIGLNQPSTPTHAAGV
T29 sequence (O75116 whole entry): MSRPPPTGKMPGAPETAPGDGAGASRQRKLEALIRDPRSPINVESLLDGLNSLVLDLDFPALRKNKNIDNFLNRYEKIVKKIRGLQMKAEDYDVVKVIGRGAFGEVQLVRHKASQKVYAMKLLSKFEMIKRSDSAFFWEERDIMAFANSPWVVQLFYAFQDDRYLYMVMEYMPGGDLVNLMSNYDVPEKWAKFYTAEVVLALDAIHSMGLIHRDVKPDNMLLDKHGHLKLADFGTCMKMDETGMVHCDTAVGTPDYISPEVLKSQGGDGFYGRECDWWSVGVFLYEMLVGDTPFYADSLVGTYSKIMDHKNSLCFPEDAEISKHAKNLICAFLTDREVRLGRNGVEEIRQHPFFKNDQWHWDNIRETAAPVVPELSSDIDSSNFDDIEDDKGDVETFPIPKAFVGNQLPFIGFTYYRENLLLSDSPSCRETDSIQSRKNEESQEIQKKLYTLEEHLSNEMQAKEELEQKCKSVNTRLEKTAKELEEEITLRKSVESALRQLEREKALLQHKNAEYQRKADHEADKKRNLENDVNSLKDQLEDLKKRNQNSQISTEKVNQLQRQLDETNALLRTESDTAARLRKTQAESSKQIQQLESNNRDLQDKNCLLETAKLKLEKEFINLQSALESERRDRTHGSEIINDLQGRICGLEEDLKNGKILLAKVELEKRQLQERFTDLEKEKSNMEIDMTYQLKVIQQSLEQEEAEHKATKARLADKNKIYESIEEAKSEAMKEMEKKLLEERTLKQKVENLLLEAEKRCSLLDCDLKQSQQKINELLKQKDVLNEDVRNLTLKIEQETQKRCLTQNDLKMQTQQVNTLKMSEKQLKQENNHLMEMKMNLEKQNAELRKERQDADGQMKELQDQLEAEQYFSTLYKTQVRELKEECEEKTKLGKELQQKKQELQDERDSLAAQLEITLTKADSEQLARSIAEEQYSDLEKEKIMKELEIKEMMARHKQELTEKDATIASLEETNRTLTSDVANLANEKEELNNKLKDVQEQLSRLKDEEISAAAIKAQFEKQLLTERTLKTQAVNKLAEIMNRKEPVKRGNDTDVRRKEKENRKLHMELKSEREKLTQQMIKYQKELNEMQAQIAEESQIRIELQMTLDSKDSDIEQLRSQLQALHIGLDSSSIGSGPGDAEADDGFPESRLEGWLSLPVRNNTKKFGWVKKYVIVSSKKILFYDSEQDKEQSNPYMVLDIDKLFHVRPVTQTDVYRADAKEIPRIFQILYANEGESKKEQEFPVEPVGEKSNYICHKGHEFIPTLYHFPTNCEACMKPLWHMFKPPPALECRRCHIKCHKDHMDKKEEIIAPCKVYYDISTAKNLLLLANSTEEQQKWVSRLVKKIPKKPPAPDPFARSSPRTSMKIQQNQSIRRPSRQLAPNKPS
T27 sequence (Q9BZL6 whole entry): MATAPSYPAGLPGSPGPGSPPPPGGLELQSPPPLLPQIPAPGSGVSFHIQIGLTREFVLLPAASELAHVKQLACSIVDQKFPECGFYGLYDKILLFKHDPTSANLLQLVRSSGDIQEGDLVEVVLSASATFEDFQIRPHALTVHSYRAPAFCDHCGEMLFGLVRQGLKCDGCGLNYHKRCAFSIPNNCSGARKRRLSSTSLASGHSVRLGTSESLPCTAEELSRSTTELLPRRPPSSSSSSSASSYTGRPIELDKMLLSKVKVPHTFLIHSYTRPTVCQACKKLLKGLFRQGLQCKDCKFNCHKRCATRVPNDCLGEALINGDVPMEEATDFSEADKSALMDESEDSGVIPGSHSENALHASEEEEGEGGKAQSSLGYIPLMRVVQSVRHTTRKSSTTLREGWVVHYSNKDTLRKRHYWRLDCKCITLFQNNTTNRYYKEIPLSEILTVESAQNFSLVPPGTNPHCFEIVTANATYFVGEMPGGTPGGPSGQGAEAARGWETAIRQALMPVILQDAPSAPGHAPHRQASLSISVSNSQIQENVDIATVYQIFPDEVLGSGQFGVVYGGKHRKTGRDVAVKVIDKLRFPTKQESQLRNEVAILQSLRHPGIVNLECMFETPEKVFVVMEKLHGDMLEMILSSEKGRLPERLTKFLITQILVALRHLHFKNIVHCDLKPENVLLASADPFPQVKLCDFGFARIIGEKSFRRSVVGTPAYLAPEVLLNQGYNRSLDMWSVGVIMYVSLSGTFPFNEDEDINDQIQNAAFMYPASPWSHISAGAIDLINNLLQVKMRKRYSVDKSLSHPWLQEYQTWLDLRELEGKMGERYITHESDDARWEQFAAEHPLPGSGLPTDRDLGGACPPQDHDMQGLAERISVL
T10 sequence (P53355 whole entry): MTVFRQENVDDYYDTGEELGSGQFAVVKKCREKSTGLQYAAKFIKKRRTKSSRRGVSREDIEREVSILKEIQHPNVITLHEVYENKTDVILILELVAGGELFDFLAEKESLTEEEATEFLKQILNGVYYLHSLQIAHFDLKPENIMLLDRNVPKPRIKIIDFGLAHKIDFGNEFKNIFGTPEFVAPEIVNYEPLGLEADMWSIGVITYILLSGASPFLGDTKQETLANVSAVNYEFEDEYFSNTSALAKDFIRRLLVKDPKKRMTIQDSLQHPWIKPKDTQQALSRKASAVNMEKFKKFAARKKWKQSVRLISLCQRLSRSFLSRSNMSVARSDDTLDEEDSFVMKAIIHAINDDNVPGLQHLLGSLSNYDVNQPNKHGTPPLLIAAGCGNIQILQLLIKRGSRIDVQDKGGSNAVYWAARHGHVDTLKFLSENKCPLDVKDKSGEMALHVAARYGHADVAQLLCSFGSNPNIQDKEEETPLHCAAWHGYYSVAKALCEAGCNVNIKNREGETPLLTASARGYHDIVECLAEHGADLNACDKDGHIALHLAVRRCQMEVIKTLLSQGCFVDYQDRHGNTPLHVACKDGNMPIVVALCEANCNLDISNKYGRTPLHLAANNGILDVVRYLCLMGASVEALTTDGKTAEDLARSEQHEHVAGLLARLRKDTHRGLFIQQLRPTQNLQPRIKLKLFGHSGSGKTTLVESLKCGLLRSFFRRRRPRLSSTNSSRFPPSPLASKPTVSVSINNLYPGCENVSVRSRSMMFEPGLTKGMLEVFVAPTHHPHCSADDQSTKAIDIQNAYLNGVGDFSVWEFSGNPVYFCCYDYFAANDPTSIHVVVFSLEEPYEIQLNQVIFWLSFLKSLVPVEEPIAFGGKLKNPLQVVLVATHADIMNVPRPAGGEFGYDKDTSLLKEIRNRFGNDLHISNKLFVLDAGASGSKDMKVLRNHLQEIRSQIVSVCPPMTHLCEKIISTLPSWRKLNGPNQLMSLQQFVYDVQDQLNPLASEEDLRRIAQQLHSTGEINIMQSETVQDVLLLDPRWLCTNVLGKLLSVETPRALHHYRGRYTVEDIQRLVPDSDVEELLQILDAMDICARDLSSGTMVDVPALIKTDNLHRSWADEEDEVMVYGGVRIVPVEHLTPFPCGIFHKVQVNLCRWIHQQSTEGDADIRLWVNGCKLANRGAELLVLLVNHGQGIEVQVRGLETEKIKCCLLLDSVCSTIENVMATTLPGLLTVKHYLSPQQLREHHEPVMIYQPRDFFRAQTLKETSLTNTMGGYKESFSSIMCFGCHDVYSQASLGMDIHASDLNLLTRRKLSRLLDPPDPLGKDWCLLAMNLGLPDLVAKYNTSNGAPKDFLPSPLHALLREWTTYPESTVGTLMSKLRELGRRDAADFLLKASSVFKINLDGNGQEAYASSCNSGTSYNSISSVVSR
T22 sequence (Q13177 whole entry): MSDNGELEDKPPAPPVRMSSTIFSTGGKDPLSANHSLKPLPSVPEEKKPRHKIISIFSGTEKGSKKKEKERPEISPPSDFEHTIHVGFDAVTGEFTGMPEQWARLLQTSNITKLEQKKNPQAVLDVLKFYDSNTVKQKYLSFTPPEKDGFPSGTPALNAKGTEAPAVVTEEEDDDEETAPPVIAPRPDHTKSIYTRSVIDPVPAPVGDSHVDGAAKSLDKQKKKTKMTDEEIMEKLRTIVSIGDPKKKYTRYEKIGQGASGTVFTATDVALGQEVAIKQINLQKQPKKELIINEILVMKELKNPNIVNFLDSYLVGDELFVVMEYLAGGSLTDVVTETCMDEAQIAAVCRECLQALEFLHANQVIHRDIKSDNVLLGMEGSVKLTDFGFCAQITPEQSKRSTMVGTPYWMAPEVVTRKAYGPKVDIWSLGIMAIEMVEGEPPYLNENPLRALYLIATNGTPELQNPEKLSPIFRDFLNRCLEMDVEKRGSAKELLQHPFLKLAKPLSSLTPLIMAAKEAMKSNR

`N#Cc1c[nH]c2nc(N)nc(-c3ccc(S(N)(=O)=O)cc3)c12` [Compound 48, 4-(2-Amino-5-cyano-7H-pyrrolo[2,3-d]pyrimidin-4-yl)benzenesulfonamide] was tested, and the “effect on NF-κB transcriptional activity” value [1] was “abolished transcriptional activity”, the “% stim” value ([1]; Il-1β+DMSO = 100%) was −40.9 ± 4.6% and the remaining activity at 10 µM (ALK(h)) was 84%. The remaining activity at 10 µM (AMPKα1(h)) was 22%, the remaining activity at 10 µM (Abl(h)) was 69% and the remaining activity at 10 µM (CDK2/cyclinA(h)) was 20%. For the same compound, the remaining activity at 10 µM (CHK1(h)) was 58%, the remaining activity at 10 µM (CHK2(h)) was 17% and the remaining activity at 10 µM (CK2(h)) was 37%. For the same compound, the remaining activity at 10 µM (CaMKI(h)) was 12%, the remaining activity at 10 µM (CaMKIV(h)) was 37% and the remaining activity at 10 µM (DAPK1(h)) was 99%. The remaining activity at 10 µM (EGFR(h)) was 108%, the remaining activity at 10 µM (EphB4(h)) was 56% and the remaining activity at 10 µM (FGFR3(h)) was 32%. It also gave a remaining activity at 10 µM (Fes(h)) of 27%, a remaining activity at 10 µM (GSK3β(h)) of 16% and a remaining activity at 10 µM (HIPK1(h)) of 90%. For the same compound, the remaining activity at 10 µM (IR(h)) was 89%, the remaining activity at 10 µM (JAK2(h)) was 29% and the remaining activity at 10 µM (MAPKAP-K2(h)) was 69%. The remaining activity at 10 µM (MEK1(h)) was 14%, the remaining activity at 10 µM (NEK2(h)) was 96% and the remaining activity at 10 µM (PAK2(h)) was 73%. It also gave a remaining activity at 10 µM (PKBα(h)) of 93%, a remaining activity at 10 µM (PKCα(h)) of 41% and a remaining activity at 10 µM (PKCη(h)) of 53%. The remaining activity at 10 µM (PKCμ(h)) was 10%, the remaining activity at 10 µM (PKD2(h)) was 26% and the remaining activity at 10 µM (PRK2(h)) was 31%. It also gave a remaining activity at 10 µM (ROCK-II(h)) of 20%, a remaining activity at 10 µM (TBK1(h)) of 54% and a remaining activity at 10 µM (cSRC(h)) of 76%.
